Biological target: Pseudomonas aeruginosa LpxC enzyme (Pseudomonas aeruginosa (strain ATCC 15692 / DSM 22644 / CIP 104116 / JCM 14847 / LMG 12228 / 1C / PRS 101 / PAO1), UniProt P47205)
Test: biochemical
Assay type: biochemical
Details: inhibitory activity on Pseudomonas aeruginosa LpxC enzyme, class symbols A/B/C; read-out: Enzyme inhibitory activity

SMILES	IC50 [nM]
CNC(=O)C(C(=O)NO)N(C)C(=O)c1ccc(-c2nc3ccccc3o2)cc1 (stereo not shown) [Compound 347, 2-[{[4-(1,3-benzoxazol-2-yl)phenyl]carbonyl}(methyl)amino]-N-hydroxy-N′-methylpropanediamide]	> 100
CNC(=O)C(C)(C(=O)NO)N(C)C(=O)c1ccc(-c2ccc(OC)cc2)cc1 (stereo not shown) [Compound 348, N-hydroxy-2-{[(4′-methoxybiphenyl-4-yl)carbonyl](methyl)amino}-N′,2-dimethylpropanediamide]	< 10
CNC(=O)C(C)(C(=O)NO)N(C)C(=O)c1ccc(-c2ccc(C)cc2)cc1 (stereo not shown) [Compound 349, N-hydroxy-N′,2-dimethyl-2-{methyl[(4′-methylbiphenyl-4-yl)carbonyl]amino}propanediamide]	< 10
CNC(=O)C(C)(C(=O)NO)N(C)C(=O)c1ccc(-c2ccc(OCCCN3CCOCC3)cc2)cc1 (stereo not shown) [Compound 350, N-hydroxy-N′,2-dimethyl-2-[methyl({4′-[3-(morpholin-4-yl)propoxy]biphenyl-4-yl}carbonyl)amino]propanediamide]	< 10
CNC(=O)C(C(=O)NO)N(C)C(=O)c1ccc(-c2ccc(S(C)(=O)=O)cc2)cc1 (stereo not shown) [Compound 352, N-hydroxy-N′-methyl-2-(methyl {[4′-(methylsulfonyl)biphenyl-4-yl]carbonyl}amino)propanediamide]	10 to 100
CNC(=O)C(C(=O)NO)N(C)C(=O)c1ccc(C#Cc2ccc(C(C)N)cc2)cc1 (stereo not shown) [Compound 358, 2-{[(4-{[4-(1-aminoethyl)phenyl]ethynyl}phenyl)carbonyl](methyl)amino}-N-hydroxy-N′-methylpropanediamide]	10 to 100
CNC(=O)C(C(=O)NO)N(C)C(=O)c1ccc(C#Cc2ccc(C(C)N3CCOCC3)cc2)cc1 (stereo not shown) [Compound 367, N-hydroxy-N′-methyl-2-(methyl {[4-({4-[1-(morpholin-4-yl)ethyl]phenyl}ethynyl)phenyl]carbonyl}amino)propanediamide]	< 10
CNC(=O)C(C(=O)NO)N(C)C(=O)c1ccc(C#Cc2cccc(CN3CCOCC3)c2)cc1 (stereo not shown) [Compound 375, N-hydroxy-N′-methyl-2-{methyl[(4-{[3-(morpholin-4-ylmethyl)phenyl]ethynyl}phenyl)carbonyl]amino}propanediamide]	10 to 100
CNC(=O)[C@](C)(C(=O)NO)N(C)C(=O)c1ccc(C#Cc2ccc(CN3CCCOCC3)cc2)cc1 [Compound 377, (2R)-N-hydroxy-N′,2-dimethyl-2-{methyl[(4-{[4-(1,4-oxazepan-4-ylmethyl)phenyl]ethynyl}phenyl)carbonyl]amino}propanediamide]	< 10
CNC(=O)C(C(=O)NO)N(C)C(=O)c1ccc(C#Cc2ccc(CNCCS(C)(=O)=O)cc2)cc1 (stereo not shown) [Compound 378, N-hydroxy-N′-methyl-2-{methyl[(4-{[4-({[2-(methylsulfonyl)ethyl]amino}methyl)phenyl]ethynyl}phenyl)carbonyl]amino}propanediamide]	< 10
CNC(=O)C(C(=O)NO)N(C)C(=O)c1ccc(C#Cc2cccc(CNC3CC3)c2)cc1 (stereo not shown) [Compound 379, 2-[{[4-({3-[(cyclopropylamino)methyl]phenyl}ethynyl)phenyl]carbonyl}(methyl)amino]-N-hydroxy-N′-methylpropanediamide]	10 to 100
CNC(=O)C(C)(NC(=O)c1ccc(C#Cc2ccc(CN3CCCOCC3)cc2)cc1)C(=O)NO (stereo not shown) [Compound 380, N-hydroxy-N′,2-dimethyl-2-{[(4-{[4-(1,4-oxazepan-4-ylmethyl)phenyl]ethynyl}phenyl)carbonyl]amino}propanediamide]	10 to 100
CNC(=O)C(C(=O)NO)N(C)C(=O)c1ccc(C#Cc2ccc(OCCN3CCCOCC3)cc2)cc1 (stereo not shown) [Compound 381, N-hydroxy-N′-methyl-2-(methyl {[4-({4-[2-(1,4-oxazepan-4-yl)ethoxy]phenyl}ethynyl)phenyl]carbonyl}amino)propanediamide]	< 10

— patent US9073821B2, “Hydroxamic acid derivative” (priority 2010, dated 2015)
